Data set [1] can be described thus: Tmax in HIV1 infected pregnant woman during postpartum period at 800 mg three times/day. The format is ADME, organism-based. The note with it: female, human, in vivo.
A short description of data set [2]: Cmax in HIV1 infected pregnant woman during postpartum period at 800 mg three times/day. The format is ADME, organism-based. Set-up: dose 800 mg. The conditions noted are these: female, human, in vivo.
For data set [3], the species on record is Homo sapiens. As to the kind of experiment: Oral clearance in HIV1 infected pregnant woman during antepartum period at 800 mg three times/day. The format is ADME, organism-based. The conditions noted are these: in vivo.
The species entered for data set [4] is Homo sapiens. Kind of data set: AUC (0-8 hrs) in HIV1 infected pregnant woman during antepartum period at 800 mg three times/day. The conditions noted are these: in vivo. Set-up: dose 800 mg, time < 8 hr. It counts as ADME, organism-based, Plasma.
Data set [5] in a line: AUC (0-8 hrs) in HIV1 infected pregnant woman during postpartum period at 800 mg three times/day. Set-up: dose 800 mg, time < 8 hr. The conditions noted are these: female, human, plasma. The format is ADME, organism-based.
Data set [6] is described as follows: Cmax in HIV1 infected pregnant woman during antepartum period at 800 mg three times/day. Set-up: dose 800 mg. The format is ADME, organism-based. The note with it: female, human, in vivo.
Data set [7] is described as follows: Oral clearance in HIV1 infected pregnant woman during postpartum period at 800 mg three times/day. The conditions noted are these: female, human, in vivo. The format is ADME, organism-based.
Data set [8] is described as follows: Tmax in HIV1 infected pregnant woman during antepartum period at 800 mg three times/day. The format is ADME, organism-based. The note with it: female, human, in vivo.

In the case of `CC(C)(C)NC(=O)[C@@H]1CN(Cc2cccnc2)CCN1C[C@@H](O)C[C@@H](Cc1ccccc1)C(=O)N[C@H]1c2ccccc2C[C@H]1O.O` [INDINAVIR], the Tmax in data set [1] is 1.88 h; in data set [8], 1.85 h. Further, the Cmax in data set [2] turned out to be 9.27 µg/mL; in data set [6] it was 4.37 µg/mL. For the same compound, the figures for the CL/F (in the data set listed under Homo sapiens [3]; in data set [7]) were 3558 mL/min and 697 mL/min, respectively. The AUC in the data set listed under Homo sapiens [4] is 459 µg·min/mL. Moreover, the AUC at 8 h in data set [5] is 23.8 µg·h/mL.

One may read the Tmax as the time from dosing to the highest level. What is called Cmax is the highest concentration seen after dosing. A word on the CL/F: it is the apparent clearance, not corrected for the fraction that reaches the circulation. What is called AUC is concentration integrated over time.

These data come from ChEMBL document CHEMBL1142235, “Pharmacokinetics and safety of indinavir in human immunodeficiency virus-infected pregnant women” (Antimicrob Agents Chemother, 2007).
